The values below come from article PMC9969396, “Development of Human Carbonic Anhydrase II Heterobifunctional Degraders” (Journal of Medicinal Chemistry, 2023).

For experiment [1], the target named is T1, hCAII (Homo sapiens, UniProt P00918+Q96SW2).
T1 construct: HEK293 cells, a line known to abundantly express hCAII; endogenous in cells; host or cells: HEK293
The experiment can be described thus: single-point hCAII degradation screen in HEK293 cells, western blot. The format is cell-based. The settings on record: 5 μM, 24 h; for activity in single-point screen (hCAII degradation): vs DMSO vehicle. The procedure: Following the confirmation of candidate hCAII’s in vitro activity, candidate degraders 1–10 were evaluated for their degradation of hCAII using HEK293 cells, a line known to abundantly express hCAII.[48] To obtain a preliminary evaluation of the activity of these compounds, an initial single-point screen was performed with HEK293 cells dosed with individual degrader candidates at a final concentration of 5 μM for 24 h prior to cell lysis. The relative abundance of hCAII in whole cell lysates was then evaluated via western blot analysis (see the Experimental Section for details).
Figure 2 Single-point activity screen of degrader candidates 1–10. Western blot analysis of HEK293 cells treated with degrader candidate (5 μM final concentration) or vehicle (DMSO) for 24 h. […] Degraders 4 and 5 were identified as active from this screen. Full images of the western blots are provided within the Supporting Information (Figure S1).
HEK293 cells were cultured in Dulbecco’s modified Eagle’s medium (DMEM, Gibco, 4.5 g/L glucose) supplemented with 10% fetal bovine serum (FBS), 1% sodium pyruvate, and 1% penicillin/streptomycin. Cells were grown at 37 °C in a humidified 5% CO2 atmosphere and regularly tested for mycoplasma.
After reaching 90% confluency, HEK293 cells were trypsinized, counted, and plated with 2 mL media at 2 × 10^6 cells per well on a tissue-culture-treated, 6-well plate. At the appropriate number of hours before reaching ∼90% confluency, cells were treated with DMSO solutions of the appropriate compounds (final concentration 0.5% DMSO per well). Upon reaching 90% confluency, typically 72 h, culture media were removed and the cells were washed with cold Dulbecco’s phosphate-buffered saline (DPBS). Lysis buffer, composed of cell lysis buffer (Cell Signaling Technology, 9803), protease inhibitor cocktail (Cell Signaling Technology, 5872), and 1 mM phenylmethylsulfonylfluoride, was added to each well, and the plates were rocked at 4 °C for 20 min. Cells were then scraped from the bottom of the plates, and the supernatant was collected after spinning down at 14,000g at 4 °C for 10 min and frozen at −80 °C. Lysates were thawed on ice, and the total protein concentration was measured using a Pierce bicinchoninic acid protein assay (Thermo Fisher Scientific, 23225). […] The immunoblot was then analyzed using the ImageJ software as an 8-bit image. The brightness and contrast of the image were adjusted, and the integrated density was calculated for each protein band using the gel lane analysis tool. Relative hCAII expression was calculated by normalizing the hCAII/β-actin ratio in compound-treated wells to the hCAII/β-actin ratio in vehicle (DMSO)-treated wells and indicated as “hCAII Abundance (% DMSO)”.
For orientation: In western blotting, separated proteins are transferred to a membrane and probed.

The target of experiment [2] is T2, hCAII (Homo sapiens, UniProt P00918).
T2 construct: made in house; host or cells: Escherichia coli BL21(DE3), pACA plasmid (gift from Carol A. Fierke)
The experiment can be described thus: colorimetric p-nitrophenyl acetate hCAII activity assay. The format is biochemical. The procedure: To verify that the p-sulfamoyl benzamide MBP retained its binding following ligation with the linker and bulky recruiting group moieties, the inhibition activity of each degrader candidate was determined using a colorimetric p-nitrophenol acetate hCAII activity assay.[46] In short, recombinantly expressed hCAII was preincubated with the degrader candidate before the addition of p-nitrophenyl acetate, a substrate that upon enzymatic cleavage leads to acetic acid and p-nitrophenolate.
Recombinant hCAII was expressed and purified according to the protocol reported in the Supporting Information. […] Wells were prepared to a final volume of 100 μL per well, including buffer (50 mM HEPES, pH 8.0), enzyme (hCAII, 40 nM), inhibitor (varying concentrations), and substrate (p-nitrophenyl acetate, 500 μM). Inhibitors and protein were preincubated for 10 min at rt, and the substrate was added to the reaction mixture immediately before reading. […] The rate of absorbance for each replicate was corrected for substrate autohydrolysis and inherent inhibitor absorbance by subtracting the rate of absorbance from a blank sample lacking enzyme but containing the inhibitor and substrate. Samples lacking inhibitor but containing enzyme and substrate were used to define 100% hCAII activity. Samples lacking inhibitor and enzyme were used to define 0% hCAII activity. IC50 was determined using non-linear regression with a variable slope on the GraphPad Prism software.

Setting [3] is: enzyme concentration of 40 nM, read-out: IC50, below the detection limit of the assay.
Setting [4] is: recombinant hCAII 40 nM, p-nitrophenyl acetate 500 μM, pH 8.0, 95% confidence interval, read-out: IC50 (nM), hCAII inhibition activity (Table S1).

Molecules are shown by their SMILES. Read-outs that look alike come from different tables or passages of the source.

By IC50 is commonly meant the concentration at which inhibition is half-maximal. In the case of `NS(=O)(=O)c1ccc(C(=O)NCCCOCCCCOCCCNc2cccc3c2C(=O)N(C2CCC(=O)NC2=O)C3=O)cc1` (centres unmarked) [Compound 4, N-(3-(4-(3-((2-(2,6-Dioxopiperidin-3-yl)-1,3-dioxoisoindolin-4-yl)amino)propoxy)butoxy)propyl)-4-sulfamoylbenzamide], in experiment [1], the “protein degradation quantified by western blot” value is on record as 64% and the “activity in single-point screen (hCAII degradation)” value was “active”. In experiment [2] (setting [3]), the half-maximal inhibitory concentration (IC50) is no more than 20 nM. In addition, the IC50 in experiment [2] (setting [4]) is no more than 20 nM.

Turning to `NS(=O)(=O)c1ccc(C(=O)NCCCOCCOCCOCCCNc2cccc3c2C(=O)N(C2CCC(=O)NC2=O)C3=O)cc1` (centres unmarked) [Compound 5, N-(3-(2-(2-(3-((2-(2,6-Dioxopiperidin-3-yl)-1,3-dioxoisoindolin-4-yl)amino)propoxy)ethoxy)ethoxy)propyl)-4-sulfamoylbenzamide], in experiment [1], the “protein degradation quantified by western blot” value is reported as 85% and the “activity in single-point screen (hCAII degradation)” value is “active”. In addition, the concentration for half-maximal inhibition (IC50) in experiment [2] (setting [3]) is no more than 20 nM. Moreover, in experiment [2] (setting [4]), the IC50 was no more than 20 nM.
